{
  "source": "patent US9193720B2",
  "about": "“Pyridin-3-yl acetic acid derivatives as inhibitors of human immunodeficiency virus replication” (priority 2014, dated 2015)",
  "data": [
    {"tested_on": "NL-RLuc virus", "assay": "Inhibition of HIV Replication (NL-RLuc luciferase reporter virus in MT-2 cells)", "format": "cell-based", "settings": "Human immunodeficiency virus 1, MT2, 120 h", "excerpt": "Inhibition of HIV Replication:\nA recombinant NL-RLuc proviral clone was constructed in which a section of the nef gene from NL4-3 was replaced with the Renilla Luciferase gene. This virus is fully infectious and can undergo multiple cycles of replication in cell culture. In addition, the luciferous reporter provides a simple and easy method for quantitating the extent of virus growth and consequently, the antiviral activity of test compounds. The plasmid pNLRLuc contains the proviral NL-Rluc DNA cloned into pUC18 at the PvuII site. The NL-RLuc virus was prepared by transfection of 293T cells with the plasmid pNLRLuc. Transfections were performed using the LipofectAMINE PLUS kit from Invitrogen (Carlsbad, Calif.) according to the manufacturer and the virus generated was titered in MT-2 cells. For susceptibility analyses, the titrated virus was used to infect MT-2 cells in the presence of compound, and after 5 days of incubation, cells were processed and quantitated for virus growth by the amount of expressed luciferase. Assay media was RPMI 1640 supplemented with 10% heat inactivated fetal bovine serum (FBS), 100 units/ml penicillin G/100 units/ml streptomycin, 10 mM HEPES buffer pH 7.55 and 2 mM L-glutamine. The results from at least 2 experiments were used to calculate the EC50 values. Luciferase was quantitated using the Dual Luciferase kit from Promega (Madison, Wis.). Susceptibility of viruses to compounds was determined by incubation in the presence of serial dilutions of the compound. The 50% effective concentration (EC50) was calculated by using the exponential form of the median effect equation where (Fa)=1/[1+(ED50/drug conc.)^m] (Johnson V A, Byington R T. Infectivity Assay. In Techniques in HIV Research. ed. Aldovini A, Walker B D. 71-76. New York: Stockton Press. 1990).", "units": {"EC50": "nM"}, "values": [
      {"smiles": "Cc1ccc(CCOc2ccc(-c3c(C)nc(C)c([C@H](OC(C)(C)C)C(=O)O)c3N3CCC(C)(C)CC3)cc2)s1", "note": "[Example 52, (S)-2-(tert-butoxy)-2-(4-(4,4-dimethylpiperidin-1-yl)-2,6-dimethyl-5-(4-(2-(5-methylthiophen-2-yl)ethoxy)phenyl)pyridin-3-yl)acetic acid]", "EC50": 5},
      {"smiles": "Cc1noc(C)c1CCOc1ccc(-c2c(C)nc(C)c([C@H](OC(C)(C)C)C(=O)O)c2N2CCC(C)(C)CC2)cc1", "note": "[Example 53, (S)-2-(tert-butoxy)-2-(5-(4-(2-(3,5-dimethylisoxazol-4-yl)ethoxy)phenyl)-4-(4,4-dimethylpiperidin-1-yl)-2,6-dimethylpyridin-3-yl)acetic acid]", "EC50": 2},
      {"smiles": "Cc1n[nH]c(C)c1CCOc1ccc(-c2c(C)nc(C)c([C@H](OC(C)(C)C)C(=O)O)c2N2CCC(C)(C)CC2)cc1", "note": "[Example 54, (S)-2-(tert-butoxy)-2-(5-(4-(2-(3,5-dimethyl-1H-pyrazol-4-yl)ethoxy)phenyl)-4-(4,4-dimethylpiperidin-1-yl)-2,6-dimethylpyridin-3-yl)acetic acid]", "EC50": 8},
      {"smiles": "Cc1ccc(-c2c(C)nc(C)c([C@H](OC(C)(C)C)C(=O)O)c2N2CCC(C)(C)CC2)cc1OCc1ccccc1", "note": "[Example 55, (S)-2-(5-(3-(benzyloxy)-4-methylphenyl)-4-(4,4-dimethylpiperidin-1-yl)-2,6-dimethylpyridin-3-yl)-2-(tert-butoxy)acetic acid]", "EC50": 93},
      {"smiles": "Cc1nc(C)c([C@H](OC(C)(C)C)C(=O)O)c(N2CCC(C)(C)CC2)c1-c1ccc(OCc2ccncc2)cc1", "note": "[Example 56, (S)-2-(tert-butoxy)-2-(4-(4,4-dimethylpiperidin-1-yl)-2,6-dimethyl-5-(4-(pyridin-4-ylmethoxy)phenyl)pyridin-3-yl)acetic acid]", "EC50": 2},
      {"smiles": "COc1ncc(-c2c(C)nc(C)c([C@H](OC(C)(C)C)C(=O)O)c2N2CCC(C)(C)CC2)cn1", "note": "[Example 57, (S)-2-(tert-butoxy)-2-(4-(4,4-dimethylpiperidin-1-yl)-5-(2-methoxypyrimidin-5-yl)-2,6-dimethylpyridin-3-yl)acetic acid]", "EC50": 217},
      {"smiles": "Cc1nc(C)c([C@H](OC(C)(C)C)C(=O)O)c(N2CCC(C)(C)CC2)c1-c1cnc(OCCc2ccc(F)cc2)nc1", "note": "[Example 58, (S)-2-(tert-butoxy)-2-(4-(4,4-dimethylpiperidin-1-yl)-5-(2-(4-fluoro-phenethoxy)pyrimidin-5-yl)-2,6-dimethylpyridin-3-yl)acetic acid]", "EC50": 9},
      {"smiles": "CCCOc1ccc(-c2c(C)nc(C)c([C@H](OC(C)(C)C)C(=O)O)c2N2CCC(C)(C)CC2)cc1F", "note": "[Example 59, (S)-2-(tert-butoxy)-2-(4-(4,4-dimethylpiperidin-1-yl)-5-(3-fluoro-4-propoxyphenyl)-2,6-dimethylpyridin-3-yl)acetic acid]", "EC50": 21},
      {"smiles": "COc1cc(-c2c(C)nc(C)c([C@H](OC(C)(C)C)C(=O)O)c2N2CCC(C)(C)CC2)cc(OC)c1OC", "note": "[Example 60, (S)-2-(tert-butoxy)-2-(4-(4,4-dimethylpiperidin-1-yl)-2,6-dimethyl-5-(3,4,5-trimethoxyphenyl)pyridin-3-yl)acetic acid]", "EC50": 262},
      {"smiles": "COc1cc(-c2c(C)nc(C)c([C@H](OC(C)(C)C)C(=O)O)c2N2CCC(C)(C)CC2)ccc1C", "note": "[Example 61, (S)-2-(tert-butoxy)-2-(4-(4,4-dimethylpiperidin-1-yl)-5-(3-methoxy-4-methylphenyl)-2,6-dimethylpyridin-3-yl)acetic acid]", "EC50": 44},
      {"smiles": "COc1cccc(-c2c(C)nc(C)c([C@H](OC(C)(C)C)C(=O)O)c2N2CCC(C)(C)CC2)c1", "note": "[Example 62, (S)-2-(tert-butoxy)-2-(4-(4,4-dimethylpiperidin-1-yl)-5-(3-methoxyphenyl)-2,6-dimethylpyridin-3-yl)acetic acid]", "EC50": 166},
      {"smiles": "Cc1nc(C)c([C@H](OC(C)(C)C)C(=O)O)c(N2CCC(C)(C)CC2)c1-c1ccc(OC(C)C)c(Cl)c1", "note": "[Example 63, (S)-2-(tert-butoxy)-2-(5-(3-chloro-4-isopropoxyphenyl)-4-(4,4-dimethylpiperidin-1-yl)-2,6-dimethylpyridin-3-yl)acetic acid]", "EC50": 119},
      {"smiles": "CCCOc1c(C)cc(-c2c(C)nc(C)c([C@H](OC(C)(C)C)C(=O)O)c2N2CCC(C)(C)CC2)cc1C", "note": "[Example 64, (S)-2-(tert-butoxy)-2-(5-(3,5-dimethyl-4-propoxyphenyl)-4-(4,4-dimethylpiperidin-1-yl)-2,6-dimethylpyridin-3-yl)acetic acid]", "EC50": 26},
      {"smiles": "CCOc1ccc(-c2c(C)nc(C)c([C@H](OC(C)(C)C)C(=O)O)c2N2CCC(C)(C)CC2)cc1F", "note": "[Example 65, (S)-2-(tert-butoxy)-2-(4-(4,4-dimethylpiperidin-1-yl)-5-(4-ethoxy-3-fluorophenyl)-2,6-dimethylpyridin-3-yl)acetic acid]", "EC50": 44},
      {"smiles": "COc1cc(-c2c(C)nc(C)c([C@H](OC(C)(C)C)C(=O)O)c2N2CCC(C)(C)CC2)ccc1F", "note": "[Example 66, (S)-2-(tert-butoxy)-2-(4-(4,4-dimethylpiperidin-1-yl)-5-(4-fluoro-3-methoxyphenyl)-2,6-dimethylpyridin-3-yl)acetic acid]", "EC50": 141},
      {"smiles": "Cc1nc(C)c([C@H](OC(C)(C)C)C(=O)O)c(N2CCC(C)(C)CC2)c1-c1ccc(OCCc2ccc(F)cc2)nc1", "note": "[Example 67, (S)-2-(tert-butoxy)-2-(4-(4,4-dimethylpiperidin-1-yl)-6′-(4-fluorophenethoxy)-2,6-dimethyl-[3,3′-bipyridin]-5-yl)acetic acid]", "EC50": 7},
      {"smiles": "Cc1nc(C)c([C@H](OC(C)(C)C)C(=O)O)c(N2CCC(C3CC3)C2)c1-c1ccc(OCCc2ccc(F)cc2)cc1", "note": "(stereo partly drawn) [Example 68, (2S)-2-(tert-butoxy)-2-(4-(3-cyclopropylpyrrolidin-1-yl)-5-(4-(4-fluorophenethoxy)phenyl)-2,6-dimethylpyridin-3-yl)acetic acid]", "EC50": 42},
      {"smiles": "Cc1nc(C)c([C@H](OC(C)(C)C)C(=O)O)c(N2CC(F)(F)C2)c1-c1ccc(OCCc2ccc(F)cc2)cc1", "note": "[Example 69, (S)-2-(tert-butoxy)-2-(4-(3,3-difluoroazetidin-1-yl)-5-(4-(4-fluorophenethoxy)phenyl)-2,6-dimethylpyridin-3-yl)acetic acid]", "EC50": 1990},
      {"smiles": "Cc1nc(C)c([C@H](OC(C)(C)C)C(=O)O)c(N2CC(C)(C)C2)c1-c1ccc(OCCc2ccc(F)cc2)cc1", "note": "[Example 70, (S)-2-(tert-butoxy)-2-(4-(3,3-dimethylazetidin-1-yl)-5-(4-(4-fluorophenethoxy)phenyl)-2,6-dimethylpyridin-3-yl)acetic acid]", "EC50": 3050},
      {"smiles": "Cc1nc(C)c([C@H](OC(C)(C)C)C(=O)O)c(N2CC(C(C)C)C2)c1-c1ccc(OCCc2ccc(F)cc2)cc1", "note": "[Example 71, (S)-2-(tert-butoxy)-2-(5-(4-(4-fluoro-phenethoxy)phenyl)-4-(3-isopropylazetidin-1-yl)-2,6-dimethylpyridin-3-yl)acetic acid]", "EC50": 3190},
      {"smiles": "Cc1nc(C)c([C@H](OC(C)(C)C)C(=O)O)c(N2CCC(c3ccccc3)CC2)c1-c1ccc(OCCc2ccc(F)cc2)cc1", "note": "[Example 72, (S)-2-(tert-butoxy)-2-(5-(4-(4-fluorophenethoxy)phenyl)-2,6-dimethyl-4-(4-phenylpiperidin-1-yl)pyridin-3-yl)acetic acid]", "EC50": 744},
      {"smiles": "Cc1nc(C)c([C@H](OC(C)(C)C)C(=O)O)c(N2CCC(c3nc(C(C)C)no3)CC2)c1-c1ccc(OCCc2ccc(F)cc2)cc1", "note": "[Example 73, (S)-2-(tert-butoxy)-2-(5-(4-(4-fluorophenethoxy)phenyl)-4-(4-(3-isopropyl-1,2,4-oxadiazol-5-yl)piperidin-1-yl)-2,6-dimethylpyridin-3-yl)acetic acid]", "EC50": 1030},
      {"smiles": "Cc1nc(C)c([C@H](OC(C)(C)C)C(=O)O)c(N2CCC(C(F)(F)F)CC2)c1-c1ccc(OCCc2ccc(F)cc2)cc1", "note": "[Example 74, (S)-2-(tert-butoxy)-2-(5-(4-(4-fluorophenethoxy)phenyl)-2,6-dimethyl-4-(4-(trifluoromethyl)piperidin-1-yl)pyridin-3-yl)acetic acid]", "EC50": 379},
      {"smiles": "CCC1(C)CCN(c2c(-c3ccc(OCCc4ccc(F)cc4)cc3)c(C)nc(C)c2[C@H](OC(C)(C)C)C(=O)O)CC1", "note": "[Example 75, (S)-2-(tert-butoxy)-2-(4-(4-ethyl-4-methylpiperidin-1-yl)-5-(4-(4-fluorophenethoxy)phenyl)-2,6-dimethylpyridin-3-yl)acetic acid]", "EC50": 4},
      {"smiles": "Cc1nc(C)c([C@H](OC(C)(C)C)C(=O)O)c(N2CCC(C)CC2)c1-c1ccc(OCCc2ccc(F)cc2)cc1", "note": "[Example 76, (S)-2-(tert-butoxy)-2-(5-(4-(4-fluorophenethoxy)phenyl)-2,6-dimethyl-4-(4-methylpiperidin-1-yl)pyridin-3-yl)acetic acid]", "EC50": 17},
      {"smiles": "COC1(C)CCN(c2c(-c3ccc(OCCc4ccc(F)cc4)cc3)c(C)nc(C)c2[C@H](OC(C)(C)C)C(=O)O)CC1", "note": "[Example 77, (S)-2-(tert-butoxy)-2-(5-(4-(4-fluorophenethoxy)phenyl)-4-(4-methoxy-4-methylpiperidin-1-yl)-2,6-dimethylpyridin-3-yl)acetic acid]", "EC50": 2}
    ]}
  ]
}
